Experimental findings from ChEMBL document CHEMBL4831522, “Structure-Based Optimization of Quinazolines as Cruzain and TbrCATL Inhibitors” (J Med Chem, 2021) are described below.

The term inhibition denotes the percentage by which the read-out fell short of the control. The term CC50 denotes the concentration giving 50% cytotoxicity. Usually EC50 stands for the concentration needed to bring the measured effect to its halfway point. What is called IC50 is the concentration at which inhibition is half-maximal. Usually Ki stands for a measure of affinity in units of concentration, obtained from inhibition or displacement.

For series [1], the target named is Cruzipain (Trypanosoma cruzi) (UniProt P25779). Nature of the series: Inhibition of recombinant Trypanosoma cruzi cruzain using Z-FR-AMC as substrate and compound-enzyme complex preincubated for 5 mins in presence of 0.001% Triton-X100 by fluorometry relative to control.
A short description of series [2]: Cytotoxicity against mouse C2C12 cells. It is filed as cell-based.
In series [3] the target is Cruzipain (Trypanosoma cruzi) (UniProt P25779). As to the kind of experiment: Inhibition of recombinant Trypanosoma cruzi cruzain using Z-FR-AMC as substrate when compound was preincubated for 5 mins in presence of BSA and 0.001% Triton-X100 followed by further incubation for 5 mins in presence of enzyme relative to control. The conditions noted are these: time 10.0 min.

For series [4], the system named is Trypanosoma brucei brucei. Nature of the series: Antitrypanosomal activity against Trypanosoma brucei brucei Lister 427 bloodstream forms measured after 72 hrs by SYBR green dye based assay. The format is functional, organism-based. The conditions noted are these: Lister 427, 72 h.
The target in series [5] is Rhodesain (Trypanosoma brucei rhodesiense) (UniProt Q95PM0). As to the kind of experiment: Inhibition of recombinant Trypanosoma brucei rhodesiense MVAT4 rhodesain expressed in Pichia pastoris at 50 uM using Z-FR-AMC as substrate preincubated for 10 mins followed by substrate addition by fluorometry relative to control.
Series [6] deals with Cruzipain (Trypanosoma cruzi) (UniProt P25779). As to the kind of experiment: Inhibition of recombinant Trypanosoma cruzi cruzain using Z-FR-AMC as substrate and compound-enzyme complex preincubated for 5 mins in presence of 0.01% Triton-X100 by fluorometry relative to control.
For series [7] the target is unchanged. Nature of the series: Inhibition of recombinant Trypanosoma cruzi cruzain using Z-FR-AMC as substrate and compound-enzyme complex preincubated for 5 mins in presence of 0.1% Triton-X100 by fluorometry relative to control.
Series [8] shares this target. Nature of the series: Inhibition of recombinant Trypanosoma cruzi cruzain at 50 uM using Z-FR-AMC as substrate preincubated for 10 mins followed by substrate addition by fluorometry relative to control.
In series [9] the target is T1, Cruzipain (Trypanosoma cruzi, UniProt P25779). Nature of the series: Inhibition of recombinant Trypanosoma cruzi cruzain using Z-FR-AMC as substrate preincubated for 10 mins followed by substrate addition by fluorometry.
Series [10] concerns Trypanosoma cruzi. Nature of the series: Trypanocidal activity against amastigotes form of Trypanosoma cruzi CA-I/72 infected in mouse C2C12 cells assessed as inhibition of parasite replication incubated for 48 hrs by DAPI staining based microscopic analysis. It is filed as functional, organism-based. The conditions noted are these: CA-I/72, C2C12, 48 h.
Series [11] is described as follows: Selectivity index, ratio of CC50 for cytotoxicity against mouse C2C12 cells to EC50 for trypanocidal activity against Trypanosoma cruzi […] infected in mouse C2C12 cells. It is filed as toxicity, cell-based. The conditions noted are these: read-out: Selectivity Index.
The target of series [12] is Rhodesain (Trypanosoma brucei rhodesiense) (UniProt Q95PM0). As to the kind of experiment: Inhibition of recombinant Trypanosoma brucei rhodesiense MVAT4 rhodesain expressed in Pichia pastoris at 100 uM using Z-FR-AMC as substrate by fluorometry relative to control.
Series [13] addresses Cruzipain (Trypanosoma cruzi) (UniProt P25779). Nature of the series: Inhibition of recombinant Trypanosoma cruzi cruzain at 20 uM using Z-FR-AMC as substrate by fluorometry relative to control.
In series [14] the target is Rhodesain (Trypanosoma brucei rhodesiense) (UniProt Q95PM0). As to the kind of experiment: Inhibition of recombinant Trypanosoma brucei rhodesiense MVAT4 rhodesain expressed in Pichia pastoris at 20 uM using Z-FR-AMC as substrate by fluorometry relative to control.
Series [15] has as its target Cruzipain (Trypanosoma cruzi) (UniProt P25779). Nature of the series: Competitive inhibition of Trypanosoma cruzi cruzain assessed as unchanged initial velocity up to 25 uM using varying levels of Z-FR-AMC as substrate by Michaelis-Menten analysis. As to conditions: dose microM <=25.
Series [16] has as its target T1, Cruzipain. As to the kind of experiment: Competitive inhibition of Trypanosoma cruzi cruzain assessed as inhibition constant using varying levels of Z-FR-AMC as substrate by Michaelis-Menten analysis.
Series [17] deals with Cruzipain (Trypanosoma cruzi) (UniProt P25779). Nature of the series: Competitive inhibition of Trypanosoma cruzi cruzain assessed as increase in apparent Kapp up to 25 uM using varying levels of Z-FR-AMC as substrate by Michaelis-Menten analysis. The conditions noted are these: dose microM <=25.
Series [18] addresses Rhodesain (Trypanosoma brucei rhodesiense, UniProt Q95PM0). As to the kind of experiment: Inhibition of recombinant Trypanosoma brucei rhodesiense MVAT4 rhodesain expressed in Pichia pastoris using Z-FR-AMC as substrate by fluorometry.
The target in series [19] is T1, Cruzipain. As to the kind of experiment: Inhibition of recombinant Trypanosoma cruzi cruzain using Z-FR-AMC as substrate by fluorometry.
Series [20] has as its target Cruzipain (Trypanosoma cruzi) (UniProt P25779). As to the kind of experiment: Inhibition of recombinant Trypanosoma cruzi cruzain at 100 uM using Z-FR-AMC as substrate by fluorometry relative to control.
Series [21] concerns the target Rhodesain (Trypanosoma brucei rhodesiense) (UniProt Q95PM0). Nature of the series: Inhibition of recombinant Trypanosoma brucei rhodesiense MVAT4 rhodesain expressed in Pichia pastoris at 1 uM using Z-FR-AMC as substrate by fluorometry relative to control.
In series [22] the target is Cruzipain (Trypanosoma cruzi) (UniProt P25779). Nature of the series: Inhibition of recombinant Trypanosoma cruzi cruzain at 100 uM using Z-FR-AMC as substrate preincubated for 10 mins followed by substrate addition by fluorometry relative to control.
Series [23] deals with Rhodesain (Trypanosoma brucei rhodesiense) (UniProt Q95PM0). As to the kind of experiment: Time dependent inhibition of recombinant Trypanosoma brucei rhodesiense MVAT4 rhodesain expressed in Pichia pastoris at 100 uM using Z-FR-AMC as substrate by fluorometry. As to conditions: time 10.0 min.
Series [24] addresses Cruzipain (Trypanosoma cruzi) (UniProt P25779). As to the kind of experiment: Time dependent inhibition of recombinant Trypanosoma cruzi cruzain at 100 uM using Z-FR-AMC as substrate by fluorometry. The conditions noted are these: time 10.0 min.

Active and inactive are the calls of the source. No cut-off for these calls is given here.

T1 sequence (P25779 whole entry): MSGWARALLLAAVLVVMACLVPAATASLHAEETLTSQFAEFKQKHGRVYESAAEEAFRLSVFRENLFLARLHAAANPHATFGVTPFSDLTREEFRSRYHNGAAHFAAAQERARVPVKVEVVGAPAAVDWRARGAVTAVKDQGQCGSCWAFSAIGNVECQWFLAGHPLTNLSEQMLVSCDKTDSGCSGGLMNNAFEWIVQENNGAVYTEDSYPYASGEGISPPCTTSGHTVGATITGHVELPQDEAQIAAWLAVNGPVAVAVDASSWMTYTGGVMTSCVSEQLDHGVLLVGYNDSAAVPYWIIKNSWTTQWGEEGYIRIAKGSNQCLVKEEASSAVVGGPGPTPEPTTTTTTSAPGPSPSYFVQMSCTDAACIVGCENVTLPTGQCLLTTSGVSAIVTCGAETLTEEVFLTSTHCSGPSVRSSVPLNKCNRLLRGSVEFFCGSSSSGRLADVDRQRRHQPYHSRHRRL
Rhodesain (Trypanosoma brucei rhodesiense), sequence (Q95PM0 1-450): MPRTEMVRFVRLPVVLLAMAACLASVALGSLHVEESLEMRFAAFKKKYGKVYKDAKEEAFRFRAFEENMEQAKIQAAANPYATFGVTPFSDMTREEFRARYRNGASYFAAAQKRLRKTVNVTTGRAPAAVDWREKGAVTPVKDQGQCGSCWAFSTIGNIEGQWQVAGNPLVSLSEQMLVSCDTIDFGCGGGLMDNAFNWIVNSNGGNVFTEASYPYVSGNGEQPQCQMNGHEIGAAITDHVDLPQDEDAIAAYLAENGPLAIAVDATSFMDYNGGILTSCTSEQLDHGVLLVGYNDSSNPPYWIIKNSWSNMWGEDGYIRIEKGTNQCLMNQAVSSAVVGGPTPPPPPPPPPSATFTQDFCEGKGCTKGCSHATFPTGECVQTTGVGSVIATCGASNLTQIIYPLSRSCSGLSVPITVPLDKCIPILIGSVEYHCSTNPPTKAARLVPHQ
Rhodesain, sequence (Q95PM0 whole entry): as the sequence (Q95PM0 1-450) above
Cruzipain (Trypanosoma cruzi), sequence (P25779 123-467 limits assumed): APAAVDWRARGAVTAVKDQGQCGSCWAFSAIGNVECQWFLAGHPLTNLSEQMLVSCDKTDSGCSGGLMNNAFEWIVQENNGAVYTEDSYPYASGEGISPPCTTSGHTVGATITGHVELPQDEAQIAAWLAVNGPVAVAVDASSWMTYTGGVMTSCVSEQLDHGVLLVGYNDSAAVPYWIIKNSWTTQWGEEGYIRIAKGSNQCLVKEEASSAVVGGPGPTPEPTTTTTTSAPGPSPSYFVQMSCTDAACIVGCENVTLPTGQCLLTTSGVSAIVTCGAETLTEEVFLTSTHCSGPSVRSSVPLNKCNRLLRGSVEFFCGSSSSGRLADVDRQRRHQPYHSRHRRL

With `c1ccc(Nc2nc(Nc3ccccc3)c3ccccc3n2)cc1`, the inhibition in series [1] worked out at 71%; in series [3] it was 62%; in series [5], 14%; in [6] it was 84%; in series [7] it was 81%; in series [8], 30%. Besides, in series [2], the CC50 is over 10 µM. The EC50 in series [4] stood at 16.3 µM; in [10], 0.9 µM. In addition, the IC50 in series [9] was determined as 14 µM. Further, the selectivity ratio in series [11] is over 11.

Take `Clc1ccc(Nc2nccc(NCc3ccccc3)n2)cc1`: in series [2], the CC50 is over 10 µM. Also, the EC50 in [4] worked out at 25 µM; in series [10], 7 µM. The results for the inhibition in [12], in series [13] and in series [14] were 10%, 34% and 10%, respectively. Also, the selectivity ratio in [11] was over 1.

For `c1ccc(CNc2nc(Nc3ccccc3)nc3ccccc23)cc1`, the inhibition entry in series [15] and in [17] was “Active” throughout. Further, the Ki in series [16] was found to be 1.7 µM. The same compound yielded a CC50 in [2] of over 10 µM. In addition, the results for the inhibition in [3], in series [12] and in series [6] were 43%, 77% and 50%, respectively. The EC50 in series [4] is 17.5 µM; in series [10] it was 0.047 µM. The figures for the IC50 in series [18] and in [19] were 17.5 µM and 8 µM, respectively. For the same compound, the selectivity ratio in [11] was over 211.

For `c1ccc(CNc2nc(Nc3nccs3)nc3ccccc23)cc1`, the inhibition in series [20] amounted to 100%; in series [1] it was 100%; in series [3], 53%; in series [12], 100%; in series [6] it was 60%; in series [7] it was 22%. The compound also returned a CC50 in [2] of over 10 µM. The EC50 was over 50 µM in [4] and 5.6 µM in [10]. Further, the IC50 in series [18] is 12.5 µM; in [19], 16 µM. Also, the selectivity ratio in series [11] is over 2.

As for `O=C(c1ccc(Nc2nc(NCc3ccccc3)c3ccccc3n2)cc1)N1CCOCC1`, the inhibition entry in [15] and in series [17] was “Active” each time. In addition, the inhibition in [20] worked out at 99%; in series [1] it was 45%; in [3], 46%; in [12], 7%; in series [6], 53%; in series [7], 49%. The Ki in series [16] came to 3.2 µM. The CC50 in series [2] is over 10 µM. Further, the EC50 in [4] is over 50 µM; in series [10], 0.8 µM. The IC50 in series [18] came out at 22 µM; in series [19], 7 µM. The selectivity ratio in [11] was over 12.

As for `Oc1cccc(Nc2nc(NCc3ccccc3)c3ccccc3n2)c1`, the inhibition in [20] came to 100%; in [1] it was 65%; in series [3] it was 44%; in series [12], 98%; in series [6], 54%; in series [7], 33%. Besides, the CC50 in series [2] was 10 µM. Also, the values for the EC50 in series [4] and in [10] were 13.8 µM and 0.93 µM, respectively. Also, the IC50 in series [18] was 26 µM; in series [19], 18 µM. In series [11], the selectivity ratio is over 11.

As to `Oc1ccc(Nc2nc(NCc3ccccc3)c3ccccc3n2)cc1`, the inhibition is 100% in series [20]; 81% in [1]; 55% in series [3]; 95% in series [12]; 56% in series [6]; 40% in series [7]. Further, in series [2], the CC50 is over 10 µM. For the same compound, the EC50 was over 50 µM in series [4] and 5.9 µM in series [10]. Besides, the results for the IC50 in [18] and in series [19] were 23 µM and 18 µM, respectively. Further, the selectivity ratio in [11] was over 2.

As to `O=C(c1ccc(Nc2nc(NCCCO)c3ccccc3n2)cc1)N1CCOCC1`, the inhibition is 90% in series [20]; 53% in series [1]; 51% in series [3]; 62% in [12]; 53% in series [6]; 69% in series [7]. Besides, in series [2], the cytotoxic concentration (CC50) is over 10 µM. For the same compound, the EC50 in series [4] was over 50 µM; in series [10] it was 22 µM. In [19], the IC50 amounted to 15 µM. The selectivity ratio in series [11] is over 0.5.

For `Clc1ccc(Nc2nc(NCCN3CCOCC3)c3ccccc3n2)cc1`, the inhibition was determined as 95% in series [20]; 75% in [1]; 62% in series [3]; 48% in series [12]; 67% in series [6]; 80% in [7]. For the same compound, the CC50 in series [2] was over 10 µM. The EC50 in series [4] amounted to 23.6 µM; in [10], 370 µM. Also, the IC50 in series [19] was 2.5 µM. Further, the selectivity ratio in [11] is over 27.

`CC(C)C[C@H](NC(=O)[C@@H]1O[C@H]1C(=O)O)C(=O)NCCCCN=C(N)N`: the IC50 in series [18] was determined as 0.0037 µM; in [19], 0.028 µM. Further, in [21], the inhibition worked out at 87%.

On to `COc1ccc(Nc2nc(NCc3ccccc3)c3ccccc3n2)cc1`, for which the inhibition in series [22] is 58%; in [1] it was 83%; in series [3], 65%; in [6], 50%; in series [7] it was 31%. The compound further came in with a CC50 in series [2] of 9 µM. Also, the EC50 came out at 15.1 µM in series [4] and 0.5 µM in series [10]. The TDI result in [23] and in series [24] was “Active” in each case. Moreover, in [9], the IC50 worked out at 52 µM. The selectivity ratio in series [11] was determined as 18.

In the case of `OCCCNc1nc(Nc2cccc(F)c2)c2ccccc2n1`, the inhibition in [20] turned out to be 89%; in [1], 58%; in series [3], 57%; in series [12], 56%; in [6] it was 67%; in series [7], 64%. In [2], the CC50 was over 10 µM. In addition, the EC50 in series [4] amounted to 17.8 µM; in series [10], 0.09 µM. Further, the IC50 in [19] was 25 µM. For the same compound, the selectivity ratio in [11] is over 109.

For the compound `Clc1ccc(Nc2nc(NCc3ccccc3)c3ccccc3n2)cc1`, the inhibition in series [1] is 42%; in series [3] it was 35%; in series [6], 48%; in series [7], 1%; in series [13] it was 78%. In series [2], this compound registered a CC50 of 10 µM. Further, the half-maximal effective concentration (EC50) amounted to 93 µM in series [4] and 0.5 µM in series [10]. Moreover, the IC50 in [18] came out at 33 µM; in series [19], 2.4 µM. For the same compound, the selectivity ratio in series [11] amounted to 21.

For `O=C(c1ccc(Nc2nc(NCCN3CCOCC3)c3ccccc3n2)cc1)N1CCOCC1`, the inhibition in series [20] came out at 85%; in series [1] it was 49%; in series [3] it was 42%; in series [12], 36%; in series [6] it was 63%; in series [7], 73%. For the same compound, the CC50 in series [2] is over 10 µM. Further, the figures for the EC50 in series [4] and in series [10] were over 50 µM and 15 µM, respectively. The IC50 in [19] is 13.5 µM. Also, the selectivity ratio in series [11] is over 1.
